This passage reports binding and Kd results from publication PMC4757794 (2016).

Test [1] deals with matched DNA (ITC) (DNA, duplex) GCGCCGTCGTCCATGTG/CACATGGACGACGGCGC
Kind of test: ITC. In general terms: In ITC the heat of successive injections is recorded.

In test [2] the test system is hairpin DNA oligomer with a CC mismatch (DNA, mismatch bulge abasic) GGCAGGCATGGCTTTTTGCCATCCCTGCC
As to the kind of experiment: emission titration.

Test [3] has as its system hairpin matched DNA (DNA, hairpin) GGCAGGCATGGCTTTTTGCCATGCCTGCC
Kind of test: emission titration.

Test [4] deals with CC mismatched DNA (ITC) (DNA, mismatch bulge abasic) GCGCCGTCGTCCATGTG/CACATGCACGACGGCGC
Kind of test: ITC.

The test system of test [5] is DNA without an abasic site (melting temperature experiment) (DNA, duplex) GACCAGCTTATCATCCCTAGATAAGCG/CGCTTATCTAGGGATGATAAGCTGGTC
As to the kind of experiment: melting temperature. The note with it: Tm stated not affected.

For test [6], the system named is 27-mer abasic dsDNA AP_C (DNA, mismatch bulge abasic, abasic at 13 of strand 2) GACCAGCTTATCATCCCTAGATAAGCG/CGCTTATCTAGGNATGATAAGCTGGTC
Kind of test: emission titration. As to conditions: 50 mM NaCl; 2 mM Tris, pH 7.5; 5 μM 1c; 32.2-fold emission increase.

The subject of test [7] is 27-mer dsDNA with CC mismatch (DNA, mismatch bulge abasic) GACCAGCTTATCATCCCTAGATAAGCG/CGCTTATCTAGGCATGATAAGCTGGTC
Kind of test: emission titration. The note with it: 50 mM NaCl; 2 mM Tris, pH 7.5; 5 μM 1c; comparison DNA of abasic titration.

Test [8] concerns 27-mer abasic dsDNA AP_T (DNA, mismatch bulge abasic, abasic at 13 of strand 2) GACCAGCTTATCATTCCTAGATAAGCG/CGCTTATCTAGGNATGATAAGCTGGTC
Kind of test: emission titration. As to conditions: 50 mM NaCl; 2 mM Tris, pH 7.5; 5 μM 1c; 21.1-fold emission increase.

For test [9], the system named is matched 17-mer dsDNA (DNA, duplex) GCGCCGTCGTCCATGTG/CACATGGACGACGGCGC
As to the kind of experiment: emission titration. As to conditions: 50 mM NaCl; 2 mM Tris, pH 7.5; 2.8-fold emission increase.

The subject of test [10] is CC mismatched 17-mer dsDNA (DNA, mismatch bulge abasic) GCGCCGTCGTCCATGTG/CACATGCACGACGGCGC
Kind of test: emission titration. The note with it: 50 mM NaCl; 2 mM Tris, pH 7.5; 27.5-fold emission increase.

The subject of test [11] is 27-mer abasic dsDNA AP_G (DNA, mismatch bulge abasic, abasic at 13 of strand 2) GACCAGCTTATCATGCCTAGATAAGCG/CGCTTATCTAGGNATGATAAGCTGGTC
Kind of test: emission titration. The note with it: 50 mM NaCl; 2 mM Tris, pH 7.5; 5 μM 1c; 14.4-fold emission increase.

Test [12] has as its system self-complementary CC mismatched DNA 5′-C1G2G3A4C5T6C7C8G9-3′ (DNA, mismatch bulge abasic) CGGACTCCG
As to the kind of experiment: 1H NMR, NOESY, TOCSY titration. The note with it: 20 mM NaCl, 50 mM sodium phosphate; D2O, pH 6.1, 10 °C; shifts at A4 and C5, mismatched site.

Test [13] deals with 27-mer abasic dsDNA AP_A (DNA, mismatch bulge abasic, abasic at 13 of strand 2) GACCAGCTTATCATACCTAGATAAGCG/CGCTTATCTAGGNATGATAAGCTGGTC
As to the kind of experiment: emission titration. The note with it: 50 mM NaCl; 2 mM Tris, pH 7.5; 5 μM 1c; 14.8-fold emission increase.

Test [14] has as its system normal (matched) 27-mer dsDNA (DNA, duplex) GACCAGCTTATCATCCCTAGATAAGCG/CGCTTATCTAGGGATGATAAGCTGGTC
As to the kind of experiment: emission titration. The note with it: 50 mM NaCl; 2 mM Tris, pH 7.5; 5 μM 1c; 4.7-fold emission increase.

The mark [15] stands for this setting: 50 mM NaCl, 2 mM Tris, pH 7.5, 0.1 mM complex titrated with 0.75 mM DNA.

`C1CCC(P(CP(C2CCCCC2)C2CCCCC2)C2CCCCC2)CC1.[Pt+2].[Pt+2].[c-]1ccccc1-c1cccc(-c2ccccn2)n1.[c-]1ccccc1-c1cccc(-c2ccccn2)n1`: the binding entry in test [1] (50 mM NaCl, 2 mM Tris, pH 7.5, 0.1 mM complex titrated with 0.75 mM DNA, Kd stated negligible) is given as “no”; in [2] (50 mM NaCl, 2 mM Tris, pH 7.5, 5 μM 2, 50-fold emission increase at 0.5 equivalents), “yes”; in test [3] (50 mM NaCl, 2 mM Tris, pH 7.5, 5 μM 2, 8.2-fold emission increase at 0.5 equivalents) it was “weak”; in test [5] it was “no”. Moreover, the Kd – broadly, the concentration at which binding is half-saturated – in test [4] (setting [15]) stood at 7.0 ± 2.1 µM.

As to `CCCCN1[C]N(Cc2ccccc2)C=C1.[Pt+2].[c-]1ccccc1-c1cccc(-c2ccccn2)n1`, the binding result in test [6] is on record as “yes”; in test [2] (50 mM NaCl, 2 mM Tris, pH 7.5, 5 μM 1c, 26.4-fold emission increase at 1 equivalent), “yes”; in test [7] it was “yes”; in test [8], “yes”; in test [3] (50 mM NaCl, 2 mM Tris, pH 7.5, 5 μM 1c, 2.6-fold emission increase at 1 equivalent) it was “weak”; in test [9] it was “weak”. Further, the binding entry in test [10] is “yes”; in [11] it was “yes”; in test [12], “yes”; in test [13], “yes”; in test [14] it was “weak”. For the same compound, the Kd in test [4] (setting [15]) stood at 51.5 ± 8.0 µM.

Regarding `CC[n+]1c(-c2ccccc2)c2cc(N)ccc2c2ccc(N)cc21`, the Kd in [1] (Na+ 50 mM (Tris 2 mM buffer)) turned out to be 1.60 ± 0.28 µM; in [4] (Na+ 50 mM (Tris 2 mM buffer)), 1.32 ± 0.24 µM. Further, the binding entry in test [2] (12.7-fold emission increase) and in test [3] (14.1-fold emission increase) was “yes” throughout.

For `CN1[C]N(C)C=C1.[Pt+2].[c-]1ccccc1-c1cccc(-c2ccccn2)n1`, the figures for the Kd in test [1] (setting [15]) and in test [4] (setting [15]) were 56.4 ± 13.6 µM and 66.2 ± 15.7 µM, respectively. In addition, the binding result in test [2] (8.5-fold emission increase) and in test [3] (7.1-fold emission increase) was “yes” in each case.
